Data: article PMC12475274, “Harnessing indole scaffolds to identify small-molecule IRE1α inhibitors modulating XBP1 mRNA splicing” (Nature Communications, 2025)
Values joined by “and” are separate entries in the source; they are usually repeats but may differ in a detail not shown here. Equal values may be shown once. Read-outs that look alike come from different tables or passages of the source.

Tests used:
[1] = biological target: T1, dephosphorylated IRE1α (547–977) (Homo sapiens, UniProt O75460); assay: FRET-based IRE1α RNase activity assay, dephosphorylated IRE1α; format: biochemical; conditions: for IRE1α IC50 / IC50: FRET assay
T1 construct: Human IRE1α kinase and RNase domain (residues 547–977) was subcloned into pLIB plasmid; His tag (with TEV cleavage site) (N, cleaved yes); made in house; host or cells: Sf9 insect cells, baculovirus (Bac-to-Bac)
T1 sequence (O75460 547-977): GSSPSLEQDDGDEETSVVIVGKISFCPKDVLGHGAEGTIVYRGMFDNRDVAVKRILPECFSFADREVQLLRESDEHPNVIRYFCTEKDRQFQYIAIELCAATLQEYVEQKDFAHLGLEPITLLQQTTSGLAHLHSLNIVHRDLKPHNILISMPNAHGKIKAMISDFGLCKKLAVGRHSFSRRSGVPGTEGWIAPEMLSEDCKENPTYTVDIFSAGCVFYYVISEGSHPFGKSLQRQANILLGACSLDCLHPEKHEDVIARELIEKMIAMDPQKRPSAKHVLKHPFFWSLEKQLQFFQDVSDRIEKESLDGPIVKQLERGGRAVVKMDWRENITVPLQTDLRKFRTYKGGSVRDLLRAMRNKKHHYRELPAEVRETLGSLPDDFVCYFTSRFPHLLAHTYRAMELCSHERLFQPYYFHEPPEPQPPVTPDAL
Description: (§1) Human IRE1α kinase and RNase domain (residues 547–977) was subcloned into pLIB plasmid with a His tag and TEV cleavage site, and expressed using Bac-to-Bac expression system. The primers used are listed in Supplementary Table S3. The protein purification was performed following established procedures. Briefly, Sf9 cells were infected with baculovirus and incubated at 27 °C 110 rpm for 72 h. The cells were collected by centrifugation at 4000 × g for 15 min and the cell pellet was resuspended in lysis buffer (50 mM HEPES pH 7.5, 300 mM NaCl, 10% glycerol, 1 mM MgCl2, 1 mM TCEP, 5 mM imidazole), then supplemented with 1:10,000 benzonase (Sigma, E1014), 1 tablet/25 mL […]™ Protease Inhibitor Cocktail tablets (Sigma, S8830) and 1 mM PMSF before lysed by sonication at 4 °C. […] The protein elution was incubated with TEV protease to remove His tag at 4 °C overnight. Then the sample was diluted 1:6 in buffer (50 mM HEPES pH 7.5, 1 mM TCEP, 5% glycerol) and loaded onto a 5 mL pre-packaged Q HP anion exchange column (Cytiva, HiTrap Q HP) pre-equilibrated with QA buffer (50 mM HEPES pH 7.5, 50 mM NaCl, 1 mM TCEP, 5% glycerol). The unphosphorylated and phosphorylated protein was separated by eluting the protein with a very shallow gradient with 0-30% buffer QB (50 mM HEPES pH 7.5, 1 M NaCl, 1 mM TCEP, 5% glycerol) over 80 CV. Different peaks were collected separately and verified by LC-MS. The fully phosphorylated fraction was collected and further purified by size exclusion chromatography (Cytiva, HiLoad 16/600 Superdex 200 pg,) with SEC buffer (25 mM HEPES pH 7.5, 250 mM NaCl, 1 mM TCEP, 10% glycerol) and fractioned as monomeric peak. The rest protein fraction from the Q HP anion exchange column was incubated with Lambda protein phosphatase (New England BioLabs, P0753S) overnight at 4 °C, the dephosphorylation was confirmed by LC-MS. The unphosphorylated protein was further purified by size exclusion chromatography with the SEC buffer described above. The purified phosphorylated (p-IRE1α) and dephosphorylated (IRE1α) protein aliquots were stored at −80 °C for future usage.
The dual-labeled RNA substrate with a FAM at 5’ and the BHQ-1 at 3’ containing the XBP1 sequence (5′FAM-[…]-3′BHQ1) was purchased from Integrated DNA Technologies (IDT). The FRET-based IRE1α RNase activity assay was carried out in reaction buffer containing 20 mM HEPES pH 7.5, 50 mM KOAc, 1 mM MgOAc2, 1 mM DTT, 0.05% v/v TritonX-100, at a total reaction volume of 20 μL in a 384-well black plate (4514, Corning). For unphosphorylated IRE1α (IRE1α), a final concentration of 40 nM IRE1α protein and 100 nM RNA substrate was used. For phosphorylated IRE1 (p-IRE1α), a final concentration of 4 nM p-IRE1α protein and 200 nM RNA substrate was used. The indicated compound and IRE1α protein were incubated for 30 min at room temperature before the substrate was added to the reaction. The plate was then kinetically read over one hour at room temperature using a TECAN Spark plate reader. The measurement was carried out using the fluorescence top reading mode at the excitation wavelength of 485 nm and the emission wavelength of 535 nm with a 10 nm excitation and emission bandwidth. The linear part of the reaction curve was adopted and fitted with sample linear regression to obtain the slope, and the slope was adopted to reflect the reaction rate. The inhibition % was calculated by using the equation: inhibition% = 100 × (slope of DMSO control – slope of the sample)/(slope of DMSO control – slope of blank control), DMSO control: DMSO with protein and RNA substrate; Blank control: DMSO with RNA substrate. The IC50 values were calculated using the concentration-response model in GraphPad Prism 9. […]

[2] = biological target: T2, phosphorylated IRE1α (p-IRE1α) (Homo sapiens, UniProt O75460); assay: FRET-based IRE1α RNase activity assay, phosphorylated IRE1α; format: biochemical; conditions: FRET assay
T2 construct: Human IRE1α kinase and RNase domain (residues 547–977) was subcloned into pLIB plasmid; His tag (with TEV cleavage site) (N, cleaved yes); made in house; host or cells: Sf9 insect cells, baculovirus (Bac-to-Bac)
T2 sequence (O75460 547-977): as above
Description: as §1
The dual-labeled RNA substrate with a FAM at 5’ and the BHQ-1 at 3’ containing the XBP1 sequence (5′FAM-[…]-3′BHQ1) was purchased from Integrated DNA Technologies (IDT). The FRET-based IRE1α RNase activity assay was carried out in reaction buffer containing 20 mM HEPES pH 7.5, 50 mM KOAc, 1 mM MgOAc2, 1 mM DTT, 0.05% v/v TritonX-100, at a total reaction volume of 20 μL in a 384-well black plate (4514, Corning). For unphosphorylated IRE1α (IRE1α), a final concentration of 40 nM IRE1α protein and 100 nM RNA substrate was used. For phosphorylated IRE1 (p-IRE1α), a final concentration of 4 nM p-IRE1α protein and 200 nM RNA substrate was used. The indicated compound and IRE1α protein were incubated for 30 min at room temperature before the substrate was added to the reaction. The plate was then kinetically read over one hour at room temperature using a TECAN Spark plate reader. The measurement was carried out using the fluorescence top reading mode at the excitation wavelength of 485 nm and the emission wavelength of 535 nm with a 10 nm excitation and emission bandwidth. The linear part of the reaction curve was adopted and fitted with sample linear regression to obtain the slope, and the slope was adopted to reflect the reaction rate. The inhibition % was calculated by using the equation: inhibition% = 100 × (slope of DMSO control – slope of the sample)/(slope of DMSO control – slope of blank control), DMSO control: DMSO with protein and RNA substrate; Blank control: DMSO with RNA substrate. The IC50 values were calculated using the concentration-response model in GraphPad Prism 9.

[3] = RNase activity, mean (± SEM), read-out: IRE1α IC50
[4] = RNase activity, mean (± SEM), read-out: p-IRE1α IC50
[5] = source data, unit from Fig. 3 / sheet Fig. 2b, read-out: IRE1a IC50, individual replicates (n1-n4)
[6] = source data, unit from Fig. 3, read-out: p-IRE1a IC50, individual replicates (n1-n4)

SMILES | IRE1α IC50 ([1]; RNase activity, mean (± SEM)) | IC50 [1, 3] [µM] | p-IRE1α IC50 ([2]; RNase activity, mean (± SEM)) | IC50 [2, 4] | IC50 [1, 5] | IC50 [2, 6] | IRE1α inhibition% ([1]; FRET assay at 50 μM, mean (± SEM)) [%]
COc1ccc2[nH]c(C)c(CCC(=O)O)c2c1 [IA72] | IC₅₀ not reached | > 20 | IC₅₀ not reached | > 20 µM |  |  | 
COc1ccc2c(c1)c(CCC(=O)O)c(C)n2C(=O)c1ccc(-c2ccccc2)cc1 [IA75] |  | 0.86 |  | 1.15 µM | 1.18 µM and 0.924 µM and 0.476 µM | 1.47 µM and 1.15 µM and 0.817 µM | 
COc1ccc2c(c1)c(CCC(=O)O)c(C)n2C(=O)N(C)C [IA76] | IC₅₀ not reached | > 20 | IC₅₀ not reached | > 20 µM |  |  | 
COc1ccc2c(c1)c(CCC(=O)O)c(C)n2C(=O)N1CCOCC1 [IA77] | IC₅₀ not reached | > 20 | IC₅₀ not reached | > 20 µM |  |  | 
COc1ccc2c(c1)c(CCC(=O)O)c(C)n2C(=O)C1CCOCC1 [IA81] |  | 2.04 |  | 5.61 µM and 5.6 µM | 1.9 µM and 2.23 µM and 1.98 µM | 5.64 µM and 7.33 µM and 3.85 µM | 
COc1ccc2c(c1)c(CCC(=O)O)c(C)n2C(=O)C1CC1 [IA84] |  | 0.83 |  | 1.74 µM | 0.703 µM and 1.25 µM and 0.531 µM | 1.51 µM and 2.54 µM and 1.17 µM | 
COc1ccc2c(c1)c(CCC(=O)O)c(C)n2C(=O)N1CCCCC1 [IA89] |  | 69.6 | IC₅₀ not reached | > 20 µM | 33.4 µM and 89.3 µM and 86 µM |  | 
COc1ccc2c(c1)c(CCC(=O)O)c(C)n2C(=O)C12CCC(C)(C(=O)O1)C2(C)C (centres unmarked) [IA92] | IC₅₀ not reached | > 20 | IC₅₀ not reached | > 20 µM |  |  | 
COc1ccc2c(c1)c(CCC(=O)O)c(C)n2C(=O)c1ccncc1 [IA93] |  | 0.18 |  | 0.34 µM | 0.141 µM and 0.211 µM and 0.201 µM | 0.198 µM and 0.428 µM and 0.403 µM | 
COc1ccc(C(=O)n2c(C)c(CCC(=O)O)c3cc(OC)ccc32)cc1 [IA96] |  | 0.17 |  | 0.2 µM | 0.0557 µM and 0.0537 µM and 0.388 µM | 0.083 µM and 0.113 µM and 0.398 µM | 
Cc1c(CCC(=O)O)c2ccccc2n1C(=O)c1ccccc1 [IA104] |  | 0.34 |  | 1.05 µM | 0.173 µM and 0.171 µM and 0.675 µM | 0.446 µM and 0.627 µM and 2.07 µM | 
Cc1c(CCC(=O)O)c2cc(C(C)C)ccc2n1C(=O)c1ccccc1 [IA110] |  | 0.24 |  | 0.2 µM | 0.23 µM and 0.198 µM and 0.292 µM | 205 nM (2×) and 190 nM | 
Cc1c(CCC(=O)O)c2cc(F)ccc2n1C(=O)c1ccccc1 [IA137] |  | 0.42 |  | 0.72 µM | 0.18 µM and 0.67 µM and 0.418 µM | 0.252 µM and 1.12 µM and 0.788 µM | 
O=C(O)Cc1c[nH]c2ccccc12 [auxin, reference compound] |  |  |  |  |  |  | ≤ 50
